# Test results taken from ChEMBL document CHEMBL1240489, “Discovery of N-{1-[3-(3-oxo-2,3-dihydrobenzo[1,4]oxazin-4-yl)propyl]piperidin-4-yl}-2-phenylacetamide (Lu AE51090): an allosteric muscarinic M1 receptor agonist with unprecedented selectivity and procognitive potential” (J Med Chem, 2010).
# Target: T1, Muscarinic acetylcholine receptor M1 (Homo sapiens, UniProt P11229)
# T1 sequence (P11229 whole entry): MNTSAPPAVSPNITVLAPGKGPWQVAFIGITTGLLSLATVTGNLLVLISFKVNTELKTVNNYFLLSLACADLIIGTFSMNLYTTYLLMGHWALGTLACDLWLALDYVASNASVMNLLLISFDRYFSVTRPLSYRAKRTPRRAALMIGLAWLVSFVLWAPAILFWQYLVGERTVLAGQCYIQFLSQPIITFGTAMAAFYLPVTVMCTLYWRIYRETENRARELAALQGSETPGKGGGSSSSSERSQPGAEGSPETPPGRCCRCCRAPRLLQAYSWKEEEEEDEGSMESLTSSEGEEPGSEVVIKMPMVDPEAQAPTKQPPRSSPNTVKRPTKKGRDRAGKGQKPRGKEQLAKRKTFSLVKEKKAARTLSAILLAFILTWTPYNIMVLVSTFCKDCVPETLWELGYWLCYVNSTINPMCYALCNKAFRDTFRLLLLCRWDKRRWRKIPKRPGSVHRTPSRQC
row,EC50 [nM],SMILES
1,150,O=C(Cc1ccccc1)NC1CCN(CCCN2C(=O)CCc3c(F)cccc32)CC1
2,10,CCC(=O)NC1CCN(CCCN2C(=O)COc3cc(F)c(F)cc32)CC1
3,310,CCC(=O)NC1CCN(CCCN2C(=O)CCc3cccc(F)c32)CC1
4,49,O=C(Cc1ccccc1)NC1CCN(CCCN2C(=O)CCc3cc(F)ccc32)CC1
5,48,O=C(Cc1ccccc1)NC1CCN(CCCN2C(=O)CCc3ccccc32)CC1
6,100,O=C(Cc1ccccc1)NC1CCN(CCCN2C(=O)CSc3ccccc32)CC1
7,1100,O=C(Cc1ccccc1)NC1CCN(CCCn2c(=O)oc3ccccc32)CC1
8,120,COc1ccc2c(c1)N(CCCN1CCC(NC(=O)Cc3ccccc3)CC1)C(=O)CC2
9,51,O=C(Cc1ccccc1)NC1CCN(CCCN2C(=O)CCc3ccc(F)cc32)CC1
10,560,COc1ccc2c(c1)CCC(=O)N2CCCN1CCC(NC(=O)Cc2ccccc2)CC1
11,20,CCC(=O)NC1CCN(CCCN2C(=O)CCc3cc(F)c(F)cc32)CC1
12,9,CCC(=O)NC1CCN(CCCN2C(=O)CCc3cc(F)ccc32)CC1
13,46,CC(C)C(=O)NC1CCN(CCCN2C(=O)COc3ccccc32)CC1

# Target: T2, Muscarinic acetylcholine receptor M1 (Homo sapiens) (UniProt P11229)
# T2 sequence (whole entry): T1 sequence (P11229 whole entry)
# Experiment: Agonist activity at human muscarinic M1 receptor expressed in CHO-K1 cells assessed as increase of acetylcholine-induced calcium flux by FLIPR assay relative to acetylcholine
# Format: functional, cell-based
row,Emax [%],SMILES
1,77,O=C(Cc1ccccc1)NC1CCN(CCCN2C(=O)CCc3c(F)cccc32)CC1
2,88,CCC(=O)NC1CCN(CCCN2C(=O)COc3cc(F)c(F)cc32)CC1
3,78,CCC(=O)NC1CCN(CCCN2C(=O)CCc3cccc(F)c32)CC1
4,79,O=C(Cc1ccccc1)NC1CCN(CCCN2C(=O)CCc3cc(F)ccc32)CC1
5,89,O=C(Cc1ccccc1)NC1CCN(CCCN2C(=O)CCc3ccccc32)CC1
6,79,O=C(Cc1ccccc1)NC1CCN(CCCN2C(=O)CSc3ccccc32)CC1
7,70,O=C(Cc1ccccc1)NC1CCN(CCCn2c(=O)oc3ccccc32)CC1
8,83,COc1ccc2c(c1)N(CCCN1CCC(NC(=O)Cc3ccccc3)CC1)C(=O)CC2
9,86,O=C(Cc1ccccc1)NC1CCN(CCCN2C(=O)CCc3ccc(F)cc32)CC1
10,84,COc1ccc2c(c1)CCC(=O)N2CCCN1CCC(NC(=O)Cc2ccccc2)CC1
11,87,CCC(=O)NC1CCN(CCCN2C(=O)CCc3cc(F)c(F)cc32)CC1
12,83,CCC(=O)NC1CCN(CCCN2C(=O)CCc3cc(F)ccc32)CC1
13,72,CC(C)C(=O)NC1CCN(CCCN2C(=O)COc3ccccc32)CC1

row,SMILES,Emax [%]
1,CCCCCCOc1nsnc1C1=CCCN(C)C1 [XANOMELINE],89

# Target: T3, Muscarinic acetylcholine receptor M3 (Homo sapiens, UniProt P20309)
# T3 sequence (P20309 whole entry): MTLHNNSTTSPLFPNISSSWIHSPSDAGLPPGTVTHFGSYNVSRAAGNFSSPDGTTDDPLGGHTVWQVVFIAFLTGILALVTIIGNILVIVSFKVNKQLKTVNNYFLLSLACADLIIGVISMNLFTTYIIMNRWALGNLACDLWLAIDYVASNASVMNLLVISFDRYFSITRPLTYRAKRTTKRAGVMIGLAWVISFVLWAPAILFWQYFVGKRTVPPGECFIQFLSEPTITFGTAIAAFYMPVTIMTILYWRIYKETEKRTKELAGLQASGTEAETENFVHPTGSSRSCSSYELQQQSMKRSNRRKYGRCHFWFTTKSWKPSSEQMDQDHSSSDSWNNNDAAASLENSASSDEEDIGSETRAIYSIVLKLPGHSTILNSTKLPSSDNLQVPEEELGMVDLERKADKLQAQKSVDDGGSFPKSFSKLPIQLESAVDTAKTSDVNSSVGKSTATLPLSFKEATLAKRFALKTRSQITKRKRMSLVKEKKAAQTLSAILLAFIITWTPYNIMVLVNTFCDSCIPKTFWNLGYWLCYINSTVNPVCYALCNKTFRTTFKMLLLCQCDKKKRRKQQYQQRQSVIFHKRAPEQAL
row,SMILES,EC50 [nM]
1,CCCCCCOc1nsnc1C1=CCCN(C)C1 [XANOMELINE],120

# Target: T3, Muscarinic acetylcholine receptor M3
# Experiment: Displacement of [3H]-4-DAMP from human muscarinic M3 receptor expressed in BHK-21 cells
# Format: cell-based
row,SMILES,Ki [nM]
1,CCCCCCOc1nsnc1C1=CCCN(C)C1 [XANOMELINE],13

# Target: T4, Muscarinic acetylcholine receptor M2 (Homo sapiens) (UniProt P08172)
# T4 sequence (whole entry): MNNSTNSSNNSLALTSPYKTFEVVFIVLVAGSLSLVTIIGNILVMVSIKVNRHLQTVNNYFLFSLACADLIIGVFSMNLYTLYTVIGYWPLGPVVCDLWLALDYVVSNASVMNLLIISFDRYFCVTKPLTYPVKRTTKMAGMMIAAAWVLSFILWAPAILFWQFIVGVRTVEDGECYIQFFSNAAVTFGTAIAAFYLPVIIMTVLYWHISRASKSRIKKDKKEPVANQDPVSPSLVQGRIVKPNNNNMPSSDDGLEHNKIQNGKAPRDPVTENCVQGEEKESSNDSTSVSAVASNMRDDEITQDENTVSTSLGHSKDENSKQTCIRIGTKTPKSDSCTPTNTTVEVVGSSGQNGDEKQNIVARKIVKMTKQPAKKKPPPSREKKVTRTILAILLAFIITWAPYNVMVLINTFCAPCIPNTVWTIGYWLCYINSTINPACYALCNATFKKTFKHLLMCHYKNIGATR
# Experiment: Agonist activity at human muscarinic M2 receptor expressed in CHO-K1 cells coexpressing Galpha16 subunit assessed as increase of acetylcholine-induced calcium flux at 10 uM by FLIPR assay relative to acetylcholine
# Format: functional, cell-based
row,SMILES,Emax [%]
1,CCCCCCOc1nsnc1C1=CCCN(C)C1 [XANOMELINE],9

# Target: T5, Muscarinic acetylcholine receptor M4 (Homo sapiens) (UniProt P08173)
# T5 sequence (whole entry): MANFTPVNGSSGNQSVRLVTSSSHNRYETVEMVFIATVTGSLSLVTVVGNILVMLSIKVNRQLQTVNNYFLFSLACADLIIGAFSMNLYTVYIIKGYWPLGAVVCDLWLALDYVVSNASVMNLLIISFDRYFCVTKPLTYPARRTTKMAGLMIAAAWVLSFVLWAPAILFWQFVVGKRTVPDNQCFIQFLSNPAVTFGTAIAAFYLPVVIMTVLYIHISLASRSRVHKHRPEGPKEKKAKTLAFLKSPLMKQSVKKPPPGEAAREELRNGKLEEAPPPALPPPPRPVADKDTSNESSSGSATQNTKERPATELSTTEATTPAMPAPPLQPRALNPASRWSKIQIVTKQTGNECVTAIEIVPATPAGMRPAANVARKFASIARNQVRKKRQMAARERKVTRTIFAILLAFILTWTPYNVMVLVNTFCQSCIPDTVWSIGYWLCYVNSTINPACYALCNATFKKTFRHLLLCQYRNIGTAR
# Experiment: Agonist activity at human muscarinic M4 receptor expressed in BHK-21 cells coexpressing Galpha16 subunit assessed as increase of acetylcholine-induced calcium flux by FLIPR assay relative to acetylcholine
# Format: functional, cell-based
row,SMILES,Emax [%]
1,CCCCCCOc1nsnc1C1=CCCN(C)C1 [XANOMELINE],72

# Target: T2, Muscarinic acetylcholine receptor M1 (Homo sapiens)
# Experiment: Agonist activity at human muscarinic M1 receptor expressed in CHO-K1 cells assessed as increase of acetylcholine-induced calcium flux at 10 uM by FLIPR assay relative to acetylcholine
# Format: functional, cell-based
row,Emax [%],SMILES
1,3,O=C(NC1CCN(CCCN2C(=O)COc3ccccc32)CC1)C1CCCCC1
2,21,CC(C)CC(=O)NC1CCN(CCCN2C(=O)COc3ccccc32)CC1
3,8,O=C(NC1CCN(CCCN2C(=O)COc3ccccc32)CC1)c1ccccc1

# Target: T6, Muscarinic acetylcholine receptor M5 (Homo sapiens) (UniProt P08912)
# T6 sequence (whole entry): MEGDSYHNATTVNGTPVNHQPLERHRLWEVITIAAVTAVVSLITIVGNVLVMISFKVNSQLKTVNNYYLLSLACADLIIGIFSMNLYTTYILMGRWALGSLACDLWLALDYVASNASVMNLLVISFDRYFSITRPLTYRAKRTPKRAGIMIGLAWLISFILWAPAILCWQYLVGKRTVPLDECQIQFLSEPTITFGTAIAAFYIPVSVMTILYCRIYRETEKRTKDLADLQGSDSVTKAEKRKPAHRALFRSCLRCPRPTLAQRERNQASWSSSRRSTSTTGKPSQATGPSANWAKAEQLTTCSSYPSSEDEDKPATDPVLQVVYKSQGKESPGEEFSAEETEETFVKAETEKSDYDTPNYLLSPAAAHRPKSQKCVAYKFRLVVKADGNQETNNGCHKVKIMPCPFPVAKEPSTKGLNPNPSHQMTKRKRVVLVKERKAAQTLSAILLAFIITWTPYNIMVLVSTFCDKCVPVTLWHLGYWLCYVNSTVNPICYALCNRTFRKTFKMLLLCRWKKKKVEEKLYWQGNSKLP
# Experiment: Agonist activity at human muscarinic M5 receptor expressed in BHK-21 cells assessed as increase of acetylcholine-induced calcium flux by FLIPR assay relative to acetylcholine
# Format: functional, cell-based
row,SMILES,Emax [%]
1,CCCCCCOc1nsnc1C1=CCCN(C)C1 [XANOMELINE],60
